Assay results: patent US20210206810A1, “Detection of Optimal Recombinants Using Fluorescent Protein Fusions” (priority 2019, published 2021)

How the values were obtained:
[1] = tested on: methicillin resistant Staphylococcus aureus (MRSA); conditions: microbial species including MRSA; cited from earlier work
Micrococcus luteus = test: Determination of minimum inhibitory concentration (MIC); assay type: cell-based; conditions: visual inspection after 24 hours at 37° C. in MHB; tested 0.25 to 32 μg/mL

**Q.** What does the source list for epidermicin-N101?
**A.** cytotoxicity to microbial species [1]: highly cytotoxic; minimum inhibitory concentration (growth of Micrococcus luteus) (Micrococcus luteus): 2 µg/mL
